Results as given in US20240165259A1, “BIOORTHOGONAL REACTION SUITABLE FOR CLICK/UNCLICK APPLICATIONS” (DANA-FARBER CANCER INSTITUTE, INC., priority 2021, published 2024).

Tests used:
[1] = test system: MDA-MB-231 HER2− breast cancer cells; assay: Cell viability assay (CellTiter-Glo), MDA-MB-231; assay type: cell-based; settings: Homo sapiens, MDA-MB-231, 96 h, read-out: IC50, cell viability, without diboron
Procedure: SK-BR-3 cells were treated with […]-100 nM trastuzumab-MMAE 61″ in the presence or absence of 50 μM B2pin2, cultured for 72 h, and assayed using the CellTiter-Glo® cell viability assay. The IC50 of the ADC was insensitive to the presence or absence of diboron and recapitulated the IC50 of MMAE alone.
This N-oxide-based drug delivery platform provides a convenient mechanism for loading drugs onto antibodies as well as an appealing alternative to existing methods for the fast and complete release of drug molecules from their carriers.
Cell culture: Cells were cultured in RPMI (SK-BR-3) or DMEM (MDA-MB-231) containing 10% FBS (Sigma), 100 units/mL penicillin, and 0.1 mg/mL streptomycin (Sigma) in a humidified chamber at 37° C. under an ambient atmosphere with 5% CO2. Cells were passaged and dissociated with 0.25% trypsin, 0.1% EDTA in HBSS (Corning). […]
Cell viability assay: SK-BR-3 or MDA-MB-231 cell were seeded at a density of 5,000-10,000 cells per well in media [100 μL, RPMI (SK-BR-3) or DMEM (MDA-MB-231) supplemented with 5% heat-inactivated human serum (Sigma), penicillin (100 units/mL), streptomycin (0.1 mg/mL)] in an opaque 96-well plate. […] The plates were incubated at room temperature for 10 min to stabilize the luminescence signal and analyzed by a microplate reader (Clariostar Plus, BMG Labtech) (FIG. 48 and FIG. 49).

[2] = test system: SK-BR-3 HER2+ breast cancer cells; assay: Cell viability assay (CellTiter-Glo), SK-BR-3; assay type: cell-based; settings: Homo sapiens, SK-BR-3, 72 h, read-out: IC50, cell viability, without diboron
Procedure: Cell viability assay: SK-BR-3 or MDA-MB-231 cell were seeded at a density of 5,000-10,000 cells per well in media [100 μL, RPMI (SK-BR-3) or DMEM (MDA-MB-231) supplemented with 5% heat-inactivated human serum (Sigma), penicillin (100 units/mL), streptomycin (0.1 mg/mL)] in an opaque 96-well plate. PBS (100 μL) was added to the edge wells. The cells were incubated at 37° C. under ambient atmosphere with 5% CO2. […] The plates were incubated at 37° C. with 5% CO2 for 72 h (SK-BR-3) or 96 h (MDA-MB-231). After the plates were equilibrated at room temperature, CellTiter-Glo™ 2.0 reagent (50 μL, Promega™) was added to each well and mixed gently. The plates were incubated at room temperature for 10 min to stabilize the luminescence signal and analyzed by a microplate reader (Clariostar Plus, BMG Labtech) (FIG. 48 and FIG. 49).

[3] = target: T1, lysozyme-TAMRA conjugate 6″conj (Gallus gallus, UniProt P00698); assay: Screening of diboron derivatives 27″-31″ for cleavage of conjugate 6″conj; assay type: biochemical; settings: PBS, 1 h
T1 construct: purchased
Procedure: The impact of boron ligands on the dissociation reaction was also explored. […] Lysozyme-TAMRA conjugate 6″conj was treated with 5 or 50 μM of each diboron reagent in PBS and analyzed by in-gel fluorescence after 1 h.
A solution of diborons 27″-31″ (0.34 μL, 125 μM or 1.25 mM in DMSO; 5 or 50 μM final concentration) was added to a solution of lysozyme-fluorophore conjugate 6″conj (8 μL, 0.50 μM in PBS, pH 7.4). The reaction mixtures were incubated at room temperature in the dark. After 60 min, each reaction mixture was quenched by adding trimethylamine N-oxide (0.93 uL, 100 mM in H2O; 10 mM final concentration) and diluted with 1.6×SDS sample buffer (14.32 μL). Each solution (10 μL) was loaded onto a 15-well 12% SDS-PAGE gel. The gel was run at room temperature and at 175 V for 50 min. In-gel fluorescence was imaged with a Typhoon™ FLA 9500 (GE) at 532 nm with a photomultiplier tube (PMT) setting of 500 V (FIG. 41).

[4] = Retro-Cope elimination of linear alkynes 1′, 4′, 6′ with N,N-diethylhydroxylamine (Scheme 1); assay type: physicochemical; settings: with N,N-diethylhydroxylamine (2′)
Procedure: The impact of inductively withdrawing halogen and chalcogen substituents at the propargylic and terminal positions of the alkyne were evaluated. Retro-Cope elimination reaction between propargyl ether 1′ and N,N-diethylhydroxylamine (2′) was completed in 18 hours whereas hydroamination of terminal alkyne 4′ was incomplete, even after 10 days. […] The regioselectivities induced by the propargyl and terminal alkyne substituents appeared to be reinforcing.

[5] = test system: cell surface HaloTag-GFP expressed on HEK293T cells; assay: Live cell labeling experiment (confocal microscopy); assay type: cell-based; settings: 10 μM 21′, then 10 μM 22′ for 1 hour, fixed
Procedure: Live cell labeling by hydroamination was explored. HEK293T cells were transiently transfected with a cell surface HaloTag-GFP construct, treated with 10 μM HaloTag linker-conjugated difluoropropargyl ether 21′, washed, and incubated with 10 μM TAMRA-conjugated hydroxylamine 22′ for 1 hour. The cells were then fixed and visualized by confocal microscopy.
Cell Culture: HEK-293T cells were cultured in Dulbecco's Modified Eagle Medium (DMEM, Corning®) containing 10% fetal bovine serum (FBS, Sigma), 100 units/mL penicillin, and 0.1 mg/mL streptomycin (Sigma) in a humidified chamber at 37° C. with 5% CO2. Cells were passaged and dissociated with 0.25% trypsin, 0.1% EDTA in HBSS (Corning®). Cells tested negative for […] by the MycoAlert PLUS Mycoplasma Detection Kit (Lonza) following the manufacturer's protocol.
Preparation for 12-Well Plate: Coverslips (15 mm circle, thickness 0.13-0.17 mm) were acid-washed according to the Cold Spring Harbor protocol (Fischer et al., Cold Spring Harb. Protoc. 2008:pdb.prot4988 (2008)). A coverslip was added to each well in a 12-well plate followed by an aqueous solution of poly-D-lysine (0.1 mg/mL, 30-70 kDa, 800 μL). The plate was gently shaken to distribute the solution evenly, incubated at room temperature for 1 hour, washed using 1 mL of autoclaved deionized water for each well, and dried overnight. […]

[6] = Cleavage reaction progress monitoring by 1H NMR spectroscopy; assay type: physicochemical; settings: 4 mM enamine N-oxide, 10 mM B2(OH)4, 10% DMSO-d6/23% CD3OD/d-PBS, pH 7.4
Text: Diboron reagents and enamine N-oxide structures in hand, the reaction kinetics were characterized and the substrate scope for the cleavage reaction was explored. A series of chromogenic probes 32″, 38″, 39″ featuring a representative series of nitrogen, oxygen, and sulfur-bearing leaving groups were obtained. Each probe was synthesized from cyclooct-2-ynol either by Mitsunobu reaction or carbamoylation with the corresponding p-nitro(thio)phenol or p-nitrophenyl isocyanate followed by hydroamination with N,N-diethylhydroxylamine. The formation of the intended products was verified by ^1H NMR spectroscopy with caffeine as an internal standard (FIG. 29A, FIG. 33, FIG. 34). […] Over the course of 24 h, iminium ion 35″ hydrolyzed to cyclooctenone 36″ and diethylamine 37″. The other substrates reacted analogously with the same quantitative formation of iminium ion 35″ at the initial time point (FIG. 29B). […]
The chromogenic probes that were prepared were intended for stopped flow kinetics experiments using UV-vis spectroscopy; however, the NMR studies precluded the use of one of these compounds for this purpose. […] Since a change in UV absorbance is contingent on p-nitroaniline formation, it could not be used or any analogous carbamate-based chromogenic or fluorogenic outputs as accurate proxies for product release. Instead, a fluorescence polarization assay was employed. […]

[7] = Cross reactivity: hydroxylamine with trans-cyclooctene 19, aldehyde 20, cyclopropene 21, alkyne 22; assay type: physicochemical
Procedure: The reaction mixtures were analyzed by ^1H NMR spectroscopy.

[8] = Cross reactivity: hydroxylamine under Cu-catalyzed azide-alkyne cycloaddition (CuAAC) conditions; assay type: physicochemical; settings: alkyne S17, THPTA, CuSO4, sodium ascorbate, PBS pH 7.4, 0-4 hours, HPLC
Procedure: A solution of N,N-diethylhydroxylamine (0.8 μL, 100 mM in PBS, pH 7.4) was added to this mixture to bring the total volume to 200 μL. The solution was immediately transferred to a clean HPLC vial to monitor the reaction progress and incubated at room temperature in the dark. The reaction was analyzed by HPLC (Pursuit 200 Å C18, 4.6×150 mm, 10 μm particles, 1 mL/min flow rate, eluent: isocratic 0% MeCN/H2O+0.1% TFA (1 minute), gradient 0→100% MeCN/H2O+0.1% TFA (14 minutes), isocratic 100% MeCN/H2O+0.1% TFA (1 minute)) at each time point (0, 1, 2, and 4 hours) and quantified using its absorbance at 280 nm.

T1 sequence (P00698 19-147): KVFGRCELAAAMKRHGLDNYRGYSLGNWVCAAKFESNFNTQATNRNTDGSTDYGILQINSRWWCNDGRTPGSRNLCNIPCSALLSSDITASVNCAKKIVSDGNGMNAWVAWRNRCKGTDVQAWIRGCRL

## CC[C@H](C)[C@@H]([C@@H](CC(=O)N1CCCC1[C@H](OC)[C@@H](C)C(=O)N[C@H](C)[C@@H](O)c1ccccc1)OC)N(C)C(=O)[C@@H](NC(=O)[C@@H](NC)C(C)C)C(C)C (stereo partly shown) [MMAE, monomethyl auristatin E]
[1]
  IC50: 0.75 nM
[2]
  IC50: 0.154 nM

## OB(O)B(O)O [Tetrahydroxydiboron, tetrahydroxydiboron]
[3]
  cleavage of 6″conj at 5 μM diboron reagent: reach completion by 1 h

## OCCCCCC#CCl [6′, 7-chlorohept-6-yn-1-ol]
[4]
  time to completion of retro-Cope elimination: ~24 h

## O=C(NCCOCCOCCCCCCCl)OCCOC(F)(F)C#CCl [21′, 2-((3-chloro-1,1-difluoroprop-2-yn-1-yl)oxy)ethyl (2-(2-((6-chlorohexyl)oxy)ethoxy)ethyl)carbamate]
[5]
  live cell labeling (TAMRA signal): localized at the cell surface and co-localized with the GFP signal of transfected cells

## CC[N+]([O-])(CC)/C1=C/C(Sc2ccc([N+](=O)[O-])cc2)CCCCC1 (stereo not shown) [38″, (E)-N,N-Diethyl-3-((4-nitrophenyl)thio)cyclooct-1-en-1-amine oxide]
[6]
  time to complete reduction / conversion of enamine N-oxide: ≤ 4 min

## CCN(O)CC [compound 1, N,N-diethylhydroxylamine]
[7]; 5 mM hydroxylamine with 5 mM cyclopropene 21 or trans-cyclooctene 19, d3-acetonitrile
  reactivity with strained alkenes: proved unreactive
[7]; CD3CN, 1 hour, room temperature, 1H NMR
  cross-reactivity with 19, 20, 21 or 22: No change in the spectra was observed
[8]
  reaction under CuAAC conditions: No reaction was observed

## CC[N+]([O-])(CC)/C1=C/C(Oc2ccc([N+](=O)[O-])cc2)CCCCC1 (stereo not shown) [32″, (E)-N,N-Diethyl-3-(4-nitrophenoxy)cyclooct-1-en-1-amine oxide]
[6]
  time to complete reduction / conversion of enamine N-oxide: ≤ 4 min
